Biological target: T1, RPS6KA3 (RSK2) (Homo sapiens, UniProt P51812)
T1 construct: purchased Thermo Fisher Scientific (Life Technologies) SelectScreen
Experiment: SelectScreen Z'LYTE
Assay type: biochemical
How it was run: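 SelectScreen broad panel; activity (Z'LYTE, Adapta) plus binding formats. ATP: Km app for CSF1R Z'LYTE; 10 for CAMK1 Adapta. Readout = % per kinase.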

T1 sequence (P51812 whole entry): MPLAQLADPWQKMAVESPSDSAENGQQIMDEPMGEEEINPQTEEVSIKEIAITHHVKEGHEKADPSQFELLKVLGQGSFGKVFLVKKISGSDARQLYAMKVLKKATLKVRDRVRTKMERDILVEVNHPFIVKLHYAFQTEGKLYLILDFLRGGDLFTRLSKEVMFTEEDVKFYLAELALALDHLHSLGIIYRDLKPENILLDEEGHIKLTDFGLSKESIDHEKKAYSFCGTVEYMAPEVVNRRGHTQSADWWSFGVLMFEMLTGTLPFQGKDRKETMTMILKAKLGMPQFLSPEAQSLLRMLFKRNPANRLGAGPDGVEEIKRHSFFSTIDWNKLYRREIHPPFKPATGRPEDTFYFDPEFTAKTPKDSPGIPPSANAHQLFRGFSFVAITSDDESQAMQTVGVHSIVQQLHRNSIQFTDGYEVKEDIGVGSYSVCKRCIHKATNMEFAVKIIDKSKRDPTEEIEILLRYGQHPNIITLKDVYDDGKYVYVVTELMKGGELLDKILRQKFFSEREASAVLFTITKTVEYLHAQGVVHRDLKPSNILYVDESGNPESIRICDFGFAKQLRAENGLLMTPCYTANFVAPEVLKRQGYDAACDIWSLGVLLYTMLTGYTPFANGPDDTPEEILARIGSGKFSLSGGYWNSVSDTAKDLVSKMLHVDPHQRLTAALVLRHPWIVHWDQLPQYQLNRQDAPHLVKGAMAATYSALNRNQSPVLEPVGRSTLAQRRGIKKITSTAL

Compound `CN(C(=O)CN1CCOCC1)c1ccc2sc3c(-c4cccc5c(=O)cc(N6CC7CCC(C6)O7)oc45)cccc3c2c1` [NU5455] has an inhibition at 1 µM of 2.1%.

— publication PMC6934184, “Selective DNA-PKcs inhibition extends the therapeutic index of localized radiotherapy and chemotherapy” (The Journal of Clinical Investigation, 2019)
